For four molecules, EC50, IC50 and Activity results are on record in ChEMBL document CHEMBL3098108, “Design, synthesis and evaluation of dual pharmacology β2-adrenoceptor agonists and PDE4 inhibitors” (Bioorg Med Chem Lett, 2014).

Test [1] has as its target Beta-2 adrenergic receptor (Cavia porcellus, UniProt Q8K4Z4). Nature of the test: Agonist activity at guinea pig trachea beta2-adrenergic receptor assessed as relaxation of histamine-induced tracheal ring contraction.
Test [2] has as its target 3',5'-cyclic-AMP phosphodiesterase 4B (Homo sapiens, UniProt Q07343). Nature of the test: Inhibition of human recombinant PDE4B2 assessed as inhibition of cAMP hydrolysis by colorimetric assay.
For test [3], the target named is Beta-2 adrenergic receptor (Cavia porcellus) (UniProt Q8K4Z4). Nature of the test: Agonist activity at guinea pig trachea beta2-adrenergic receptor assessed as relaxation of histamine-induced tracheal ring contraction in presence of ICI-118551.
Beta-2 adrenergic receptor (Cavia porcellus), sequence (Q8K4Z4 whole entry, looked up): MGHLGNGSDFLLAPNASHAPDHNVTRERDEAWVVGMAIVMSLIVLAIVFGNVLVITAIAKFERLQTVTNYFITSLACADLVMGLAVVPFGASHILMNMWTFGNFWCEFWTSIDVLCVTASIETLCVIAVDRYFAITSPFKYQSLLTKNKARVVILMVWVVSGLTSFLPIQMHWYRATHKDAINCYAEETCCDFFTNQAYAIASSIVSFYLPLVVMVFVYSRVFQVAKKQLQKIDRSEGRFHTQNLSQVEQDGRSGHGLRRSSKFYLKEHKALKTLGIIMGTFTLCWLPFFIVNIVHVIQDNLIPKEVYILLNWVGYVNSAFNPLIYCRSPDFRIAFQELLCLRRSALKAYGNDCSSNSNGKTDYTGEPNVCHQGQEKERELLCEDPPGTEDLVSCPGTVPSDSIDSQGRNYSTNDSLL

The source made the active and inactive calls. The rule behind the calls is not given here.

3',5'-cyclic-AMP phosphodiesterase 4B, sequence (Q07343 whole entry): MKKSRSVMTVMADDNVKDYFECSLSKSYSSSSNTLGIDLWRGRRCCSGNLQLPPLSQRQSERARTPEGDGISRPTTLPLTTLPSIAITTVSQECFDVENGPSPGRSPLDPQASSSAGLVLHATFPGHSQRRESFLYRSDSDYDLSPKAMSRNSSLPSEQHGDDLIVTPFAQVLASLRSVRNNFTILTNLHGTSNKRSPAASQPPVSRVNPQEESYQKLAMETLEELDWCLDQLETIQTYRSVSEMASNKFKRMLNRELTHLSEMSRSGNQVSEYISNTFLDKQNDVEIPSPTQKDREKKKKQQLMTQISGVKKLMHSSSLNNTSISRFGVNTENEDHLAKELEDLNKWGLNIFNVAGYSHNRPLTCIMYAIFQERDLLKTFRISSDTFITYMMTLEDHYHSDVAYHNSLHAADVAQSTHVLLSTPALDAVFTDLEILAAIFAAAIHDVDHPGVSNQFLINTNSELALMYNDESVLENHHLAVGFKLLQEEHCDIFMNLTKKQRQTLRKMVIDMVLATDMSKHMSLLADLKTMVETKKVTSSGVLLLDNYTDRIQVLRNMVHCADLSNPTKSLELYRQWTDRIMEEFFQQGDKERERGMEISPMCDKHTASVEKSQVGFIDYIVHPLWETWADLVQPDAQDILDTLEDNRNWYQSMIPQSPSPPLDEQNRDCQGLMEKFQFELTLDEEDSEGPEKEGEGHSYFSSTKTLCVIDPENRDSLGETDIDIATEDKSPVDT
Beta-2 adrenergic receptor, sequence (Q8K4Z4 whole entry): as the sequence (Q8K4Z4 whole entry, looked up) above

Usually EC50 stands for the midpoint of the concentration-response curve. For orientation: IC50 means the concentration at which inhibition is half-maximal. Turning to `COc1ccc(C2=NN(CCCCCCOc3ccc(C[C@@H](C)NC[C@H](O)c4ccc(O)c(NC=O)c4)cc3)C(=O)C3CCCCC23)cc1OC` (some centres undefined), the EC50 in test [1] was 1.05 nM. Further, the IC50 in test [2] is 92 nM. Besides, in test [3], the result was Active.
With `COc1ccc(C2=NN(CCCCCCOc3ccc(CC(C)NCC(O)c4ccc(O)c(NC=O)c4)cc3)C(=O)C3CCCCC23)cc1OC` (racemic), in test [1], the EC50 is 5.02 nM. For the same molecule, in test [2], the IC50 was 104 nM.
`COc1ccc(C2=NN(CCCCOc3ccc(CC(C)NCC(O)c4ccc(O)c(NC=O)c4)cc3)C(=O)C3CCCCC23)cc1OC` (centres undefined): the EC50 in test [1] was found to be 10.3 nM. Moreover, the IC50 in test [2] stood at 117 nM.
On to `COc1ccc(C2=NN(CCCCCOc3ccc(CC(C)NCC(O)c4ccc(O)c(NC=O)c4)cc3)C(=O)C3CCCCC23)cc1OC` (centres undefined), for which, in test [1], the EC50 came out at 12.6 nM. The IC50 in test [2] was found to be 118 nM.
